One assay relates to sulfide production. On the procedure:
(§1) A field experiment was conducted in an oil field water injection system to determine the effect of nitrate (NO3^-) for controlling sulfate reducing bacteria (SRB) in oilfield operations, and microbial influence corrosion (MIC) for surface pipelines.

Another assay has as its system NRSOB. The protocol:
as §1

Assay [1] deals with Nitrate Utilizing Bacterial (NUB). As to the kind of experiment: Field trial microbiological monitoring: planktonic NUB population. It counts as cell-based, nitrate utilizing bacteria. On the procedure:
as §1

The test system of assay [2] is sulfate reducing bacteria (SRB).
Protocol: The second injection rate, 23 mg/l, was maintained for three weeks.

SMILES strings stand for the structures. Like-named read-outs stand apart in the source and are kept apart here.

`O=[N+]([O-])O` [nitrate]: the figures for the sulfide level in the assay on sulfide production (nitrate 11 mg/L) and in the assay on sulfide production (nitrate 23 mg/l) were 6.7 mg/L and 8 mg/L, respectively. Besides, in the assay on sulfide production (nitrate ion 45 mg/L, 15.8-17.3 ppm detected beforehand), the sulfide concentration is 8.3 ppm. The NRSOB numbers is recorded as 10^4 per ml in the assay on NRSOB (nitrate dose reduced, decreased from 10^6) and 10^6 /ml with NRSOB (over treatment with nitrate at 45 mg/L, increased from 10^3). Besides, the NUB population in assay [1] (initially detected, start of nitrate treatment) is reported as 104 NUB/ml; in assay [1] (over nitrate treatment with 45 mg/L), ~10^6 NUB/ml. In addition, in assay [1] (nitrate reduced to 23 mg/L and 11 mg/L, over 7 days and after 56 days), the “planktonic NUB population” value was 106 mL⁻¹. Further, the SRB activities is recorded as 101 SRB/ml in assay [2] (increase observed later after 23 mg/l period, maintained) and “below the detection limits” in assay [2] (nitrate 23 mg/l, at the end of three weeks). Moreover, the “minimum SRB achieved” value in assay [2] (nitrate 11 mg/l) was 10^1 bacteria/ml. In addition, the “drop in SRB activities” value in assay [2] (nitrate 45 mg/l, 10^2 SRB/ml before injection) came to 50%.
